# Test system: HaCaT cells
# Assay: ELTA labeling (32P-dATP, sequencing gel) of PAR isolated from H2O2-treated cells
# Type: cell-based
# Conditions: HaCaT cells pre-treated with inhibitor prior to H2O2 induction of PAR (FIG. 6b)
# Protocol: FIG. 6A-6B illustrates the detection of ADP-ribose length using ELTA. (a) A sequencing gel of the ELTA labeling reaction of ADP-ribose monomer (lane 1), PAR (lane 2), and of ADP-ribose monomer and polymer isolated from in vitro ADP-ribosylated PARP1 by NAD^+ in the presence of the PARP inhibitor Olaparib (lane 3), by NAD^+ for 10 min in the absence of Olaparib (lane 4) and by NAD^+ for 30 min (lane 5). As a comparison, the ADP-ribose monomer and polymer isolated from in vitro ADP-ribosylated PARP1 by NAD+ with a trace of ^32P-NAD+ in the presence of Olaparib for 30 min (lane 6), by NAD^+ for 10 min in the absence of Olaparib (lane 7) and by NAD^+ for 30 min (lane 8). (b) A sequencing gel of the ELTA labeling reaction of ADP-ribose monomer and polymer isolated from in vitro ADP-ribosylated haPARP (lane 1), from untreated cancer cells (lane 2), from cancer cells with DNA damage (lane 3), from cancer cells with DNA damage and treated with PARP inhibitor (lane 4) and from cancer cells with DNA damage and treated with PARG inhibitor (lane 5).
# Next, the inventors tested whether ELTA can be used to examine PAR isolated from cells (FIG. 6b). PAR was retrieved from cells using a solid-phase extraction method that allows for the high recovery of PAR without any bias of different chain length. HaCaT cells were either untreated, H2O2-treated to induce PARylation, pre-treated with PARP inhibitor Olaparib prior to H2O2 induction of PAR, or pre-treated with inhibitor against the PAR-degrading enzyme PARG (PDD 00017273) prior to H2O2 induction of PAR. As a control, the inventors also isolated PAR from in vitro modified Herpetosiphon aurantiacus PARP (haPARP), which usually generates PAR of 2-25 mer (lane 1), using the same solid-phase extraction method. As expected, we observed significant PAR signals in H2O2-treated cell samples (FIG. 6b; lane 3), which is longer from the one isolated from haPARP (lane 1). […] Taken together, ELTA can assess the length of PAR isolated in vitro or from cells.
Compound,PAR signal isolated from cells,PAR length distribution isolated from cells
O=C(c1cc(Cc2n[nH]c(=O)c3ccccc23)ccc1F)N1CCN(C(=O)C2CC2)CC1 [Olaparib],reduced the signal to background level,
PDD 00017273,enrichment of overall signals,stronger signals were observed at a shorter range

# Reference: patent US12601734B2, “Methods and uses of enzymatic labeling of ADP-ribose containing molecules” (THE JOHNS HOPKINS UNIVERSITY, priority 2018, dated 2026)
